Laboratory results from patent US8329726B2, “Inhibitors of VEGF receptor and HGF receptor signaling” (MethylGene Inc., priority 2005, dated 2012).

Key:
[1] = biological target: T1, VEGF receptor KDR (Homo sapiens, UniProt P35968); assay: In vitro receptor tyrosine kinase assay (DELFIA), VEGF receptor KDR; assay type: biochemical; settings: read-out: VEGFR IC50
T1 construct: made in house; host or cells: Sf9 cells (Spodoptera frugiperda), baculovirus
Procedure: In the case of VEGF receptor KDR a 1.6-kb cDNA corresponding to the catalytic domain of VEGFR2 or KDR (Genbank accession number AF035121 amino acid 806 to 1356) was cloned into the Pst I site of the pDEST20 Gateway vector (Invitrogen) for the production of a GST-tagged version of that enzyme.
The GST-VEGFR2806-1356 protein was expressed in […] (Spodoptera frugiperda) upon infection with recombinant baculovirus construct. […] Cell pellets were frozen at −80° C. until purification was performed.
The supernatant (cell extract) was used as starting material for purification of GST-VEGFR2806-1356.
The supernatant was loaded onto a GST-agarose column (Sigma) equilibrated with PBS pH 7.3. Following a four column volume (CV) wash with PBS pH 7.3+1% Triton X-100 and 4 CV wash with buffer B (50 mM Tris pH 8.0, 20% glycerol and 100 mM NaCl), bound proteins were step eluted with 5 CV of buffer B supplemented with 5 mM DTT and 15 mM glutathion. GST-VEGFR2806-1356 enriched fractions from this chromatography step were pooled based on U.V. trace i.e. fractions with high O.D.280. Final GST-VEGFR2806-1356 protein preparations concentrations were about 0.7 mg/ml with purity approximating 70%.
(§1) The coated plates were washed and stored at 4° C. […] After incubation, the kinase reactions were quenched with EDTA and the plates were washed.

[2] = system: A549; assay: A549 wound healing inhibition (HGF dependent migration); assay type: cell-based; settings: Homo sapiens, A549 cells, read-out: A549 WOUND HEALING INHIB IC50
From the text: (§2) HGF has well known activity in terms of inducing scattering and migration (wound healing) (Wells et al., Cell Motil Cytoskeleton. 2005 November 62(3):180-94; Miura et al., Urology 2001 December 58(6):1064-9; Nishimura et al., Int J Urol. 1998 May 5(3):276-81; Wang et al., Mol Cancer Ther. 2003 November; 2(11):1085-92; and Christensen et al., Cancer Res. 2003 Nov. 1; 63(21):7345-55).

[3] = biological target: T2, recombinant human c-Met/HGF receptor (Homo sapiens, UniProt P08581); assay: In vitro receptor tyrosine kinase assay (DELFIA), c-Met/HGF receptor; assay type: biochemical; settings: read-out: CMET IC50
T2 construct: His tag (pBlueBacHis2A vector); made in house; host or cells: Hi-5 cells (Trichoplusia ni), baculovirus
Procedure: Cell pellets were frozen at −80° C. until purification was performed.
as §1

[4] = system: DU145; assay: DU145 scattering inhibition (HGF dependent scattering); assay type: cell-based; settings: Homo sapiens, DU-145; HGF dependent scattering, DU145 cells; read-out: DU145 SCATTERING INHIB IC50
From the text: as §2

T2 sequence (P08581 1078-1337): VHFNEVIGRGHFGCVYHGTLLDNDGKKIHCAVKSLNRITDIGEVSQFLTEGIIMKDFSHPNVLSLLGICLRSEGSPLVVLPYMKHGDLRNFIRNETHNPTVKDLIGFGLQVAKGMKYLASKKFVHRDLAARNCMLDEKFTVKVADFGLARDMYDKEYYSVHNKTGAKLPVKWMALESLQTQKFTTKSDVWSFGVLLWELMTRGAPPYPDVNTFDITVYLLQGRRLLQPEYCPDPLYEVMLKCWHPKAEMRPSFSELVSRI
T1 sequence (P35968 806-1356): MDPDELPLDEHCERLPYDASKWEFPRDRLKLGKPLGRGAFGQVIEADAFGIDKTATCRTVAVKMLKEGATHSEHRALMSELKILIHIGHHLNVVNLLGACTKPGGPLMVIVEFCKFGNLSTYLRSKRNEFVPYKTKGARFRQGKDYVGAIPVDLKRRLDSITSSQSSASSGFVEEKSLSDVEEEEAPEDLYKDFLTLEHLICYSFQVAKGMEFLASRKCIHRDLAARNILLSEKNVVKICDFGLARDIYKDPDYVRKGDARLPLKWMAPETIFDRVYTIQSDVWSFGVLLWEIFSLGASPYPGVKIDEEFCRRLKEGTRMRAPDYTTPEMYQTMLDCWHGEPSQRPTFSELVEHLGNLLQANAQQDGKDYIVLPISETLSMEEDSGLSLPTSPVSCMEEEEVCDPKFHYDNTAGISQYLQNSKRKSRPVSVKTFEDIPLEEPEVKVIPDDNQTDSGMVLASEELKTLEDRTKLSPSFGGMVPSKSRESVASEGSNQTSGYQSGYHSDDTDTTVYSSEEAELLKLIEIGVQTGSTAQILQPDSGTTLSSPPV

| SMILES | IC50 [1] [nM] | IC50 [2] [nM] | IC50 [3] [nM] | IC50 [4] [nM] |
| --- | --- | --- | --- | --- |
| COc1ccccc1NC(=O)CC(=O)Nc1ccc(Oc2ccnc3cc(N4CCCC4=O)sc23)c(F)c1 | 50 to 250 | < 1000 | 50 to 250 | < 1000 |
| Cn1ccnc1-c1cc2nccc(Oc3ccc(NC(=O)CS(=O)(=O)c4ccc(F)cc4)cc3F)c2s1 | 50 to 250 | 1000 to 5000 | 250 to 500 | 1000 to 5000 |
| Cn1cnc(-c2cc3nccc(Oc4ccc(NC(=O)N5CCN(c6ccccc6)C5=O)cc4)c3s2)c1 | 50 to 250 | < 1000 | < 50 | < 1000 |
| CN1CC=C(c2cc3nccc(Oc4ccc(NC(=O)N5CCN(c6ccccc6)C5=O)cc4F)c3s2)CC1 | 50 to 250 | < 1000 | < 50 | < 1000 |
| CN(C(=O)CC(=O)Nc1ccc(Oc2ccnc3cc(C(=O)N(C)N(C)C)sc23)c(F)c1)c1ccccc1 | > 500 | > 10000 | 250 to 500 | > 10000 |
| CN(C)Cc1cccc(-c2cc3nccc(Oc4ccc(NC(=O)CC(=O)Nc5ccccc5F)cc4F)c3s2)c1 [drawing 316] | 50 to 250 | 1000 to 5000 | < 50 | < 1000 |
| CN(C)[C@H]1CCN(Cc2ccc(-c3cc4nccc(Oc5ccc(NC(=O)CC(=O)Nc6ccccc6)cc5F)c4s3)cc2)C1 | < 50 | 1000 to 5000 | 50 to 250 | < 1000 |
| CC(C)n1cnc(-c2cc3nccc(Oc4ccc(NC(=O)C5CCN(c6ccccc6)C5=O)cc4F)c3s2)c1 (centres unmarked) | < 50 | < 1000 | < 50 | < 1000 |
| Cn1cnc(-c2cc3nccc(Nc4ccc(NC(=O)C5CCN(c6ccccc6)C5=O)cc4F)c3s2)c1 (centres unmarked) | 250 to 500 | < 1000 | 50 to 250 | 1000 to 5000 |
| CN(C)CCn1cnc(-c2cc3nccc(Oc4ccc(NC(=O)CC(=O)Nc5ccccc5)cc4F)c3s2)c1 | < 50 | < 1000 | < 50 | < 1000 |
| O=C(Nc1ccc(Oc2ccnc3cc(-c4cn(CCN5CCCC5)cn4)sc23)c(F)c1)C1CCN(c2ccccc2)C1=O (centres unmarked) | < 50 | 1000 to 5000 | 50 to 250 | < 1000 |
| COc1ccccc1NC(=O)CC(=O)Nc1ccc(Oc2ccnc3cc(-c4cncn4C)sc23)c(F)c1 [drawing 289] | < 50 | 1000 to 5000 | < 50 | 1000 to 5000 |
| O=C(Nc1ccc(Oc2ccnc3cc(-c4cn(CCN5CCCC5)cn4)sc23)c(F)c1)C1(C(=O)Nc2ccccc2F)CC1 | < 50 | 1000 to 5000 | < 50 | < 1000 |
| O=C(CC(=O)Nc1ccc(Oc2ccnc3cc(-c4ccc(CN5CCNCC5)cc4)sc23)c(F)c1)Nc1ccccc1 | < 50 | 1000 to 5000 | < 50 | < 1000 |
| CN1CCN(C(=O)C2(C(=O)Nc3ccc(Oc4ccnc5cc(-c6cn(C)cn6)sc45)c(F)c3)CC2)c2ccccc21 | < 50 | 1000 to 5000 | > 500 | 1000 to 5000 |
| CN(C(=O)CC(=O)Nc1ccc(Oc2ccnc3cc(-c4cn(C)cn4)sc23)c(F)c1)c1ccccc1F | < 50 | < 1000 | 50 to 250 | 1000 to 5000 |
| COc1ccccc1NC(=O)CC(=O)Nc1ccc(Oc2ccnc3cc(-c4nccn4C)sc23)c(F)c1 [drawing 284] | < 50 | < 1000 | < 50 | 1000 to 5000 |
| CN(C)CC/C=C\c1cc2nccc(Oc3ccc(NC(=O)CC(=O)N(C)c4ccccc4)cc3F)c2s1 | 50 to 250 | 1000 to 5000 | 50 to 250 | 1000 to 5000 |
| O=C(O)Cn1cnc(-c2cc3nccc(Oc4ccc(NC(=O)CC(=O)Nc5ccccc5)cc4F)c3s2)c1 | < 50 | > 10000 | < 50 | > 10000 |

Next, values leading:

| IC50 [1] [nM] | IC50 [2] [nM] | IC50 [3] [nM] | IC50 [4] [nM] | SMILES |
| --- | --- | --- | --- | --- |
| < 50 | < 1000 | < 50 | < 1000 | CN(C)CCn1cnc(-c2cc3nccc(Oc4ccc(NC(=O)N5CCN(c6ccccc6)C5=O)cc4F)c3s2)c1 |
| < 50 | 1000 to 5000 | 50 to 250 | 1000 to 5000 | CC(C(=O)Nc1ccccc1)C(=O)Nc1ccc(Oc2ccnc3cc(-c4nccn4C)sc23)c(F)c1 (centres unmarked) [drawing 286] |
| < 50 | 1000 to 5000 | 50 to 250 | 1000 to 5000 | COc1ccc(NC(=O)C2(C(=O)Nc3ccc(Oc4ccnc5cc(-c6cn(C)cn6)sc45)c(F)c3)CC2)cc1 |
| < 50 | < 1000 | 50 to 250 | < 1000 | CCn1cnc(-c2cc3nccc(Oc4ccc(NC(=O)CC(=O)NC5CCCCC5)cc4F)c3s2)c1 |
| < 50 | < 1000 | < 50 | < 1000 | O=C(Nc1ccc(Oc2ccnc3cc(-c4cn(CCN5CCCC5)cn4)sc23)c(F)c1)N1CCN(c2ccccc2)C1=O |
| < 50 | 1000 to 5000 | 50 to 250 | < 1000 | COc1ccccc1NC(=O)CC(=O)Nc1ccc(Oc2ccnc3cc(-c4ccc(CN5CCCC5)cc4)sc23)c(F)c1 [drawing 295] |
| < 50 | 1000 to 5000 | < 50 | 5000 to 10000 | O=C(Cn1cnc(-c2cc3nccc(Oc4ccc(NC(=O)CC(=O)Nc5ccccc5)cc4F)c3s2)c1)NCCCN1CCCC1 |
| < 50 | < 1000 | < 50 | < 1000 | CCn1cnc(-c2cc3nccc(Oc4ccc(NC(=O)N5CCN(c6ccccc6F)C5=O)cc4F)c3s2)c1 |
| < 50 | < 1000 | < 50 | < 1000 | CCn1cnc(-c2cc3nccc(Oc4ccc(NC(=O)C5(C(=O)Nc6ccccc6F)CC5)cc4F)c3s2)c1 |
| < 50 | < 1000 | < 50 | < 1000 | CCn1cnc(-c2cc3nccc(Oc4ccc(NC(=O)N5CCN(c6ccc(F)cc6)C5=O)cc4F)c3s2)c1 |
| < 50 | 1000 to 5000 | > 500 | > 10000 | COc1ccccc1NC(=O)CC(Nc1ccc(Oc2ccnc3cc(-c4cn(C)cn4)sc23)c(F)c1)C(F)(F)F (centres unmarked) |
| < 50 | 1000 to 5000 | < 50 | < 1000 | Cn1cnc(-c2cc3nccc(Oc4ccc(NC(=O)C5(C(=O)Nc6ccccc6F)CC5)cc4F)c3s2)c1 |
| < 50 | 1000 to 5000 | < 50 | < 1000 | CN1CCN(Cc2ccc(-c3cc4nccc(Oc5ccc(NC(=O)CC(=O)Nc6ccccc6)cc5F)c4s3)cc2)CC1 |
| < 50 | < 1000 | < 50 | < 1000 | Cn1cnc(-c2cc3nccc(Oc4ccc(NC(=O)CC(=O)Nc5ccccc5)cc4F)c3s2)c1 [drawing 287] |
| < 50 | < 1000 | 250 to 500 | 1000 to 5000 | Cn1ccnc1-c1cc2nccc(Oc3ccc(NC(=O)CC(=O)Nc4cccnc4)cc3F)c2s1 [drawing 282] |
| < 50 | < 1000 | < 50 | < 1000 | O=C(Nc1ccc(Oc2ccnc3cc(-c4cn(CCCN5CCCC5)cn4)sc23)c(F)c1)C1CCN(c2ccccc2)C1=O (centres unmarked) |
| < 50 | < 1000 | < 50 | < 1000 | CCCn1cnc(-c2cc3nccc(Oc4ccc(NC(=O)CC(=O)Nc5ccc(F)cc5)cc4F)c3s2)c1 |
| < 50 | < 1000 | < 50 | < 1000 | CN1CCN(Cc2ccc(-c3cc4nccc(Oc5ccc(NC(=O)C6(C(=O)Nc7ccccc7)CC6)cc5F)c4s3)cc2)CC1 |
| < 50 | < 1000 | 50 to 250 | < 1000 | CCN(CC)CCn1cnc(-c2cc3nccc(Oc4ccc(NC(=O)CC(=O)N(C)c5ccccc5)cc4F)c3s2)c1 |
| < 50 | < 1000 | < 50 | < 1000 | COCCn1cnc(-c2cc3nccc(Oc4ccc(NC(=O)CC(=O)Nc5ccccc5)cc4F)c3s2)c1 |
| < 50 | 1000 to 5000 | < 50 | < 1000 | CCn1cnc(-c2cc3nccc(Oc4ccc(NC(=O)N5CCN(c6ccccc6OC)C5=O)cc4F)c3s2)c1 |
| < 50 | > 10000 | < 50 | 1000 to 5000 | CN1CCN(CCN(C)Cc2ccc(-c3cc4nccc(Oc5ccc(NC(=O)N6CCN(c7ccccc7)C6=O)cc5F)c4s3)cc2)CC1 |
